From article PMC10302047, “Structure–Activity Relationship Studies of Indolglyoxyl-Polyamine Conjugates as Antimicrobials and Antibiotic Potentiators” (Pharmaceuticals, 2023)
In brackets after ≈: the same amount, converted by molar mass.

Columns and labels:
P. aeruginosa ATCC 27853 [1] = assay: Antibiotic potentiation (MIC of antibiotics in the presence of synergizing compounds), P. aeruginosa; type: cell-based, Pseudomonas aeruginosa; details: concentration required to restore doxycycline activity at 2 µg/mL (4.5 µM) against P. aeruginosa ATCC 27853
[2] = Cytotoxicity assay HEK293; type: cell-based, human; details: human, HEK293 cells, mean (n = 2), read-out: Cyto. IC50 (concentration of compound at 50% cytotoxicity)
Procedure: Cytotoxicity assays were conducted according to previously reported protocols.

S. aureus ATCC 25923 = assay: Antimicrobial susceptibility (MIC), S. aureus; type: cell-based, Staphylococcus aureus; details: Staphylococcus aureus, ATCC25923; S. aureus ATCC 25923; mean (n = 3)
Procedure: (§1) The susceptibility of bacterial strains S. aureus (ATCC 25923), E. coli (ATCC 25922) and P. aeruginosa (ATCC 27853) to antibiotics and compounds was determined according to previously reported protocols. Additional antimicrobial evaluation against MRSA (ATCC 43300) and C. albicans (ATCC 90028) was undertaken at the Community for Open Antimicrobial Drug Discovery at The University of Queensland (Australia) according to their standard protocols as reported previously.

P. aeruginosa ATCC 27853 [3] = assay: Antimicrobial susceptibility (MIC), P. aeruginosa; type: cell-based; details: Pseudomonas aeruginosa, ATCC27853, mean (n = 3), read-out: MIC P. a
Procedure: as §1

C. albicans ATCC 90028 = assay: Antifungal susceptibility (MIC), C. albicans; type: cell-based; details: Candida albicans, ATCC90028, mean (n = 2)
Procedure: as §1

E. coli ATCC 25922 = assay: Antimicrobial susceptibility (MIC), E. coli; type: cell-based; details: Escherichia coli, ATCC25922, mean (n = 3)
Procedure: as §1

MRSA ATCC 43300 = assay: Antimicrobial susceptibility (MIC), MRSA; type: cell-based; details: Staphylococcus aureus; MRSA ATCC 43300; mean (n = 2); read-out: MIC MRSA
Procedure: as §1

human red blood cells = assay: Hemolytic assay; type: cell-based; details: mean (n = 2)
Procedure: Hemolysis assays were conducted according to previously reported protocols.

Structure (SMILES)	MIC (S. aureus ATCC 25923) [µM]	MIC (P. aeruginosa ATCC 27853 [3]) [µM]	MIC (C. albicans ATCC 90028) [µM]	MIC (E. coli ATCC 25922) [µM]	MIC (MRSA ATCC 43300) [µM]	Conc (µM) for Potentiation of doxycycline (P. aeruginosa ATCC 27853 [1]) [µM]	IC50 [2] [µM]	Hem. HC10 (concentration of compound at 10% hemolytic activity) (human red blood cells) [µM]
O=C(NCCCNCCCCCCCCNCCCNC(=O)C(=O)c1c[nH]c2ccccc12)C(=O)c1c[nH]c2ccccc12 [Compound 17c]	25 (≈ 15 µg/mL)	100 (≈ 60.1 µg/mL)	> 39	12.5 (≈ 7.51 µg/mL)	39 (≈ 23.4 µg/mL)	50	10	>39
O=C(NCCCNCCCCCCNCCCNC(=O)C(=O)c1c[nH]c2ccc(Br)cc12)C(=O)c1c[nH]c2ccc(Br)cc12.O=C(O)C(F)(F)F.O=C(O)C(F)(F)F [Compound 18a, N^1,N^6-Bis(3-(2-(5-bromo-1H-indol-3-yl)-2-oxoacetamido)propyl)hexane-1,6-diaminium 2,2,2-trifluoroacetate]	1.56	50	16.7	6.25	4.17	6.5	8.9	>33
O=C(NCCCNCCCCCCCCNCCCNC(=O)C(=O)c1c[nH]c2ccc(Br)cc12)C(=O)c1c[nH]c2ccc(Br)cc12.O=C(O)C(F)(F)F.O=C(O)C(F)(F)F [Compound 18c, N^1,N^8-Bis(3-(2-(5-bromo-1H-indol-3-yl)-2-oxoacetamido)propyl)octane-1,8-diaminium 2,2,2-trifluoroacetate]	25	> 200	32	> 200	8.1	>200	18	>32
O=C(NCCCNCCCCCCCCCCNCCCNC(=O)C(=O)c1c[nH]c2ccc(Br)cc12)C(=O)c1c[nH]c2ccc(Br)cc12.O=C(O)C(F)(F)F.O=C(O)C(F)(F)F [Compound 18d, N^1,N^10-Bis(3-(2-(5-bromo-1H-indol-3-yl)-2-oxoacetamido)propyl)decane-1,10-diaminium 2,2,2-trifluoroacetate]	6.16	200	32	98	7.88	25	16	>32
COc1ccc2[nH]cc(C(=O)C(=O)NCCCNCCCCCCCNCCCNC(=O)C(=O)c3c[nH]c4ccc(OC)cc34)c2c1.O=C(O)C(F)(F)F.O=C(O)C(F)(F)F [Compound 19b, N^1,N^7-Bis(3-(2-(5-methoxy-1H-indol-3-yl)-2-oxoacetamido)propyl)heptane-1,7-diaminium 2,2,2-trifluoroacetate]	57	> 200	37	> 200	37	114	> 37	>37
COc1ccc2[nH]cc(C(=O)C(=O)NCCCNCCCCCCCCCCCCNCCCNC(=O)C(=O)c3c[nH]c4ccc(OC)cc34)c2c1 [Compound 19e]	12.5 (≈ 8.96 µg/mL)	> 200	34 (≈ 24.4 µg/mL)	100 (≈ 71.7 µg/mL)	34 (≈ 24.4 µg/mL)	>200	8.6	>34
O=C(NCCCNCCCCCCCNCCCNC(=O)C(=O)c1c[nH]c2c(F)cccc12)C(=O)c1c[nH]c2c(F)cccc12.O=C(O)C(F)(F)F.O=C(O)C(F)(F)F [Compound 21b, N^1,N^7-Bis(3-(2-(7-fluoro-1H-indol-3-yl)-2-oxoacetamido)propyl)heptane-1,7-diaminium 2,2,2-trifluoroacetate]	7.3	> 200	38	> 200	18.8	7.3	11	>38

More lines, main results first:

MIC (S. aureus ATCC 25923) [µM]	MIC (P. aeruginosa ATCC 27853 [3]) [µM]	MIC (C. albicans ATCC 90028) [µM]	MIC (E. coli ATCC 25922) [µM]	MIC (MRSA ATCC 43300) [µM]	Structure (SMILES)	Conc (µM) for Potentiation of doxycycline (P. aeruginosa ATCC 27853 [1]) [µM]	IC50 [2] [µM]	Hem. HC10 (concentration of compound at 10% hemolytic activity) (human red blood cells) [µM]
14.6	117	37	117	18.7	O=C(NCCCNCCCCCCCCCCNCCCNC(=O)C(=O)c1c[nH]c2ccccc12)C(=O)c1c[nH]c2ccccc12.O=C(O)C(F)(F)F.O=C(O)C(F)(F)F [Compound 17d, N^1,N^10-Bis(3-(2-(1H-indol-3-yl)-2-oxoacetamido)propyl)decane-1,10-diaminium 2,2,2-trifluoroacetate]	58	4.9	>37
25 (≈ 16.4 µg/mL)	> 200	36 (≈ 23.6 µg/mL)	> 200	9.04 (≈ 5.94 µg/mL)	O=C(NCCCNCCCCCCCCCCCCNCCCNC(=O)C(=O)c1c[nH]c2ccccc12)C(=O)c1c[nH]c2ccccc12 [Compound 17e]	6.25	5.6	>36
6.4	51	16	51	4.1	O=C(NCCCNCCCCCCCNCCCNC(=O)C(=O)c1c[nH]c2ccc(Br)cc12)C(=O)c1c[nH]c2ccc(Br)cc12.O=C(O)C(F)(F)F.O=C(O)C(F)(F)F [Compound 18b, N^1,N^7-Bis(3-(2-(5-bromo-1H-indol-3-yl)-2-oxoacetamido)propyl)heptane-1,7-diaminium 2,2,2-trifluoroacetate]	12.9	13	>33
5.99	96	31	24	3.84	O=C(NCCCNCCCCCCCCCCCCNCCCNC(=O)C(=O)c1c[nH]c2ccc(Br)cc12)C(=O)c1c[nH]c2ccc(Br)cc12.O=C(O)C(F)(F)F.O=C(O)C(F)(F)F [Compound 18e, N^1,N^12-Bis(3-(2-(5-bromo-1H-indol-3-yl)-2-oxoacetamido)propyl)dodecane-1,12-diaminium 2,2,2-trifluoroacetate]	24	8.6	20
> 100	> 100	36 (≈ 23.8 µg/mL)	> 100	> 36	COc1ccc2[nH]cc(C(=O)C(=O)NCCCNCCCCCCCCNCCCNC(=O)C(=O)c3c[nH]c4ccc(OC)cc34)c2c1 [Compound 19c]	25	18	26
12.5	> 200	35	50	17.4	COc1ccc2[nH]cc(C(=O)C(=O)NCCCNCCCCCCCCCCNCCCNC(=O)C(=O)c3c[nH]c4ccc(OC)cc34)c2c1.O=C(O)C(F)(F)F.O=C(O)C(F)(F)F [Compound 19d, N^1,N^10-Bis(3-(2-(5-methoxy-1H-indol-3-yl)-2-oxoacetamido)propyl)decane-1,10-diaminium 2,2,2-trifluoroacetate]	>200	6.8	>35
